We go through nine compounds from ChEMBL document CHEMBL1154658, “Novel macrocyclic inhibitors of hepatitis C NS3/4A protease featuring a 2-amino-1,3-thiazole as a P4 carbamate replacement” (J Med Chem, 2009).

Series [1] concerns Hepatitis C virus. Kind of series: Inhibition of HCV 1b NS3/4A protease by time-resolved fluorescence assay. The arrangement: species or system Hepatitis C virus subtype 1b.
Series [2] has as its system Hepatitis C virus. Description: Antiviral activity against HCV 1b infected in human Huh7 cells by bicistronic replicon RNA assay in presence of 50% normal human serum. In kind it is functional, organism-based, Hepacivirus hominis. Particulars: genotype 1b, Huh-7. (In general: A replicon is a self-replicating genome or part of one, used to study replication in cells.)

The nature of series [3]: AUC (0 to 4 hrs) in Sprague-Dawley rat at 5 mg/kg, po. The arrangement: time < 4 hr, dose 5 mg/kg, route oral. It counts as ADME, organism-based, Plasma. Particulars: Sprague-Dawley, plasma.
For series [4], the system named is Hepatitis C virus. Description: Antiviral activity against HCV 1b infected in human Huh7 cells by bicistronic replicon RNA assay in presence of 10% fetal bovine serum. It counts as functional, organism-based, Hepacivirus hominis. To be noted: genotype 1b, Huh-7.
Series [5] is described as follows: Drug level in Sprague-Dawley rat liver at 5 mg/kg, po after 4 hrs. It counts as ADME, organism-based. The arrangement: dose 5 mg/kg, route oral. Particulars: read-out: Drug uptake.
Series [6] can be described thus: Oral bioavailability in Sprague-Dawley rat at 5 mg/kg. In kind it is ADME, organism-based. To be noted: in vivo.

For orientation: Ki means a dissociation constant, usually derived from enzyme kinetics or from competition with a known ligand. A high value points to weaker binding. By EC50 is commonly meant the concentration needed to bring the measured effect to its halfway point. What is called AUC(0-t) is the area under the concentration-time curve up to a stated or last time point. On to `C=C[C@@H]1C[C@]1(NC(=O)[C@@H]1C[C@@H]2CN1C(=O)[C@H](C(C)C)NC1=NN=C(CCCCc3ccc4ccnc(c4c3)O2)O1)C(=O)NS(=O)(=O)C1CC1`, for which the Ki with Hepatitis C virus [1] was 0.9 nM. The EC50 was 180 nM in the series on Hepatitis C virus [2] and 80 nM with Hepatitis C virus [4]. In series [3], the AUC(0-t) at 4 h turned out to be 0.1 µM·h. In addition, in series [5], the concentration at 4 h worked out at 0.03 µM.

Regarding `C=C[C@@H]1C[C@]1(NC(=O)[C@@H]1C[C@@H]2CN1C(=O)[C@H](C1CCCCC1)Nc1nc(cs1)CCCCc1ccc3ccnc(c3c1)O2)C(=O)NS(=O)(=O)C1CC1.O=C(O)C(F)(F)F`, the Ki with Hepatitis C virus [1] stood at 1.3 nM. Besides, the results for the EC50 in the series on Hepatitis C virus [2] and with Hepatitis C virus [4] were 350 nM and 30 nM, respectively. The compound also yielded an AUC(0-t) at 4 h in series [3] of 4.7 µM·h. The concentration at 4 h in series [5] came to 3.4 µM.

The term bioavailability denotes the share of a dose that reaches the circulation, judged against a reference dose that is usually intravenous. In the series with Hepatitis C virus [1], `C=C[C@@H]1C[C@]1(NC(=O)[C@@H]1C[C@@H]2CN1C(=O)[C@H](C(C)C)Nc1nc(cs1)CCCCc1ccc3ccnc(c3c1)O2)C(=O)NS(=O)(=O)C1CC1.O=C(O)C(F)(F)F` registered a Ki of 1.7 nM. The compound also registered a bioavailability in series [6] of 60%. In addition, the values for the EC50 in the series on Hepatitis C virus [2] and in the series with Hepatitis C virus [4] were 920 nM and 60 nM, respectively. This compound also yielded an AUC(0-t) at 4 h in series [3] of 9.9 µM·h. Moreover, the concentration at 4 h in series [5] came out at 5.5 µM.

The compound `C=C[C@@H]1C[C@]1(NC(=O)[C@@H]1C[C@@H]2CN1C(=O)[C@H](C(C)C)Nc1nc(cs1)C(C)(C)CCCc1ccc3ccnc(c3c1)O2)C(=O)NS(=O)(=O)C1CC1.O=C(O)C(F)(F)F` gave a Ki in the series with Hepatitis C virus [1] of 3 nM. Further, the EC50 in the series with Hepatitis C virus [2] is 100 nM; with Hepatitis C virus [4] it was 20 nM. This compound also came in with an AUC(0-t) at 4 h in series [3] of 0.8 µM·h. For the same compound, the concentration at 4 h in series [5] was 3.6 µM.

As to `C=C[C@@H]1C[C@]1(NC(=O)[C@@H]1C[C@@H]2CN1C(=O)[C@H](C(C)C)Nc1nc(cs1)CCCCCc1ccc3ccnc(c3c1)O2)C(=O)NS(=O)(=O)C1CC1`, the Ki in the series with Hepatitis C virus [1] worked out at 1.5 nM. For the same compound, the values for the EC50 in the series with Hepatitis C virus [2] and in the series on Hepatitis C virus [4] were 830 nM and 120 nM, respectively.

`C=C[C@@H]1C[C@]1(NC(=O)[C@@H]1C[C@@H]2CN1C(=O)[C@H](C(C)C)Nc1nc(cs1)CC/C=C/c1ccc3ccnc(c3c1)O2)C(=O)NS(=O)(=O)C1CC1.O=C(O)C(F)(F)F` returned a Ki in the series with Hepatitis C virus [1] of 5 nM. Moreover, the figures for the EC50 in the series on Hepatitis C virus [2] and with Hepatitis C virus [4] were 730 nM and 30 nM, respectively. The same compound had an area under the curve AUC(0-t) at 4 h in series [3] of 0.9 µM·h. The concentration at 4 h in series [5] worked out at 2.4 µM.

In the series on Hepatitis C virus [1], `C=C[C@@H]1C[C@]1(NC(=O)[C@@H]1C[C@@H]2CN1C(=O)[C@H](C(C)C)Nc1nc(cs1)CCCCc1ccc3nc(-c4ccccc4)cc(c3c1)O2)C(=O)NS(=O)(=O)C1CC1.O=C(O)C(F)(F)F` displayed a Ki of 0.5 nM. The EC50 with Hepatitis C virus [2] is 390 nM; in the series on Hepatitis C virus [4], 40 nM. The compound also showed an AUC(0-t) at 4 h in series [3] of less than 0.01 µM·h. The concentration at 4 h in series [5] was less than 0.01 µM.

For `C=C[C@@H]1C[C@]1(NC(=O)[C@@H]1C[C@@H]2CN1C(=O)[C@H](C(C)(C)C)NC(=O)OCCCCCc1ccc3ccnc(c3c1)O2)C(=O)NS(=O)(=O)C1CC1`, the affinity in the series with Hepatitis C virus [1] corresponds to a Ki of 0.2 nM. The EC50 turned out to be 46 nM in the series with Hepatitis C virus [2] and 8.7 nM in the series on Hepatitis C virus [4]. In addition, the AUC(0-t) at 4 h in series [3] turned out to be 0.27 µM·h. Moreover, the concentration at 4 h in series [5] turned out to be 13.4 µM.

As for `C=C[C@@H]1C[C@]1(NC(=O)[C@@H]1C[C@@H]2CN1C(=O)[C@H](C(C)(C)C)Nc1nc(cs1)CCCCc1ccc3ccnc(c3c1)O2)C(=O)NS(=O)(=O)C1CC1.O=C(O)C(F)(F)F`, in the series on Hepatitis C virus [1], the affinity, expressed as Ki, was 0.2 nM. Also, the results for the EC50 in the series with Hepatitis C virus [2] and in the series with Hepatitis C virus [4] were 130 nM and 20 nM, respectively. In addition, the AUC(0-t) at 4 h in series [3] amounted to 0.1 µM·h. For the same compound, in series [5], the concentration at 4 h was determined as 1 µM.
